Measured values as given in patent US10499641B2 (priority 2010, dated 2019).

Experiments:
Plasmopara viticola = experiment: Plasmopara test (grapevine)/protective; assay type: in vivo; conditions: young grapevine plants, sprayed, active ingredient concentration 10 ppm, evaluation 6 days after inoculation; 100% = no infection
Method: Plasmopara Test (Grapevine)/Protective
• Solvent: 24.5 parts by weight of acetone • 24.5 parts by weight of dimethylacetamide • Emulsifier: 1 part by weight of alkylaryl polyglycol ether
[To produce an appropriate active ingredient formulation, 1 part by weight of active ingredient is mixed with the specified amounts of solvent and emulsifier, and the concentrate is diluted with water to the desired concentration.
To test for protective efficacy, young plants are sprayed with the active ingredient formulation at the stated application rate. After the spray coating has dried on, the plants are inoculated with an aqueous spore suspension of Plasmopara viticola and then remain in an incubation cabin at approx. 20° C. and 100% relative air humidity for 1 day. Subsequently, the plants are placed in a greenhouse at approx. 21° C. and approx. 90% air humidity for 4 days. The plants are then moistened and placed in an incubation cabin for 1 day.
Evaluation follows 6 days after the inoculation. 0% means an efficacy which corresponds to that of the control, whereas an efficacy of 100% means that no infection is observed.
In this test, the following inventive compounds show, at an active ingredient concentration of 10 ppm, an efficacy of 70% or more: […]

Phytophthora infestans = assay type: in vivo; conditions: young tomato plants, sprayed, active ingredient concentration 100 ppm, inoculated 1 day after treatment, evaluation 7 days after inoculation; 100% = no infection
Peronospora brassicae = experiment: Peronospora test (oilseed rape seeds)/seed treatment; assay type: in vivo; conditions: dose 50 g/dt, 14-day-old plants inoculated, incubated 7 days, infected leaf area, 100% = no disease
Method: Peronospora Test (Oilseed Rape Seeds)/Seed Treatment
The test was conducted under greenhouse conditions.
Oilseed rape seeds treated with an inventive active compound or a combination of inventive active compounds dissolved in N-methyl-2-pyrrolidone and diluted with water to the desired dose were sown in 6*6 cm vessels. The vessels contain 4 cm of a 1:1 mixture of steam-treated field soil and sand. The plants grew at 10° C.
14-day-old plants were inoculated with an aqueous spore suspension of Peronospora brassicae. The vessels containing the plants were incubated in a greenhouse at a temperature of 15° C. and a relative air humidity of 100% for 7 days.
The assessment of the test included the evaluation of the infected leaf area per plant. 0% means an efficiency corresponding to that of the control, while an efficiency of 100% means that no disease is observed.

[1] = pH 7.8

Structure (SMILES)	Eff. % (Plasmopara viticola)	Eff. % (Phytophthora infestans)	Eff. % (Peronospora brassicae)	logp [b] [1]	chromatographic logP (physchem; pH 2.7)	chromatographic logP (physchem; pH 7.8)
O=C(Cn1nc(C(F)F)cc1C(F)F)N1CCC(c2nc(C3=NOC(c4ccccc4C=NO)C3)cs2)CC1 (mixture of isomers) [Example I-4]	100%	100%	92%	–	–	–
Cc1cc(C(F)(F)F)nn1CC(=O)N1CCC(c2nc(C3=NOC(c4ccccc4C=NO)C3)cs2)CC1 (mixture of isomers) [Example I-38]	95%	100%	86%	–	–	–
C[Si](C)(C)C#CCOc1ccccc1C1CC(c2csc(C3CCN(C(=O)Cn4nc(C(F)F)cc4C(F)F)CC3)n2)=NO1 (stereo not drawn) [Example I-1, 2-[3,5-Bis(difluoromethyl)-1H-pyrazol-1-yl]-1-(4-{4-[5-(2-{[3-(trimethylsilyl)prop-2-yn-1-yl]oxy}phenyl)-4,5-dihydro-1,2-oxazol-3-yl]-1,3-thiazol-2-yl]piperidin-1-yl}ethanone]	–	–	–	4.58[b]	–	–
O=C(Cn1nc(C(F)F)cc1C(F)F)N1CCC(c2nc(C3=NOC(c4ccccc4OCC#Cc4cccc5ccccc45)C3)cs2)CC1 (stereo not drawn) [Example I-2, 2-[3,5-Bis(difluoromethyl)-1H-pyrazol-1-yl]-1-(4-{4-[5-(2-{[3-(1-naphthyl)prop-2-yn-1-yl]oxy}phenyl)-4,5-dihydro-1,2-oxazol-3-yl]-1,3-thiazol-2-yl}piperidin-1-yl)ethanone]	–	100%	–	–	4.81	4.68
CC(C)(C)OC(=O)Nc1ccc(C2CC(c3csc(C4CCN(C(=O)Cn5nc(C(F)F)cc5C(F)F)CC4)n3)=NO2)cc1 (stereo not drawn) [Example I-17, tert-Butyl (4-{3-[2-(1-{[3,5-bis(difluoromethyl)-1H-pyrazol-1-yl]acetyl}piperidin-4-yl)-1,3-thiazol-4-yl]-4,5-dihydro-1,2-oxazol-5-yl}phenyl)carbamate]	–	100%	–	3.46[b]	–	–
CC(=NO)c1ccccc1C1CC(c2csc(C3CCN(C(=O)Cn4nc(C(F)(F)F)cc4C)CC3)n2)=NO1 (stereo not drawn) [Example I-40, 1-[4-(4-{5-[2-(N-Hydroxyethanimidoyl)phenyl]-4,5-dihydro-1,2-oxazol-3-yl}-1,3-thiazol-2-yl)piperidin-1-yl]-2-[5-methyl-3-(trifluoromethyl)-1H-pyrazol-1-yl]ethanone]	90%	100%	–	–	2.92	–
CON=Cc1cccc(F)c1C1CC(c2csc(C3CCN(C(=O)Cn4nc(C(F)F)cc4C(F)F)CC3)n2)=NO1 (stereo not drawn) [Example I-60]	100%	84%	95%	–	–	–
Cc1cc(C(F)(F)F)nn1CC(=O)N1CCC(c2nc(C3=NOC(c4ccccc4OS(=O)(=O)C4CC4)C3)cs2)CC1 (stereo not drawn) [Example I-61]	100%	89%	90%	–	–	–
Cc1cc(C(F)(F)F)nn1CC(=O)N1CCC(c2nc(C3=NOC(c4ccccc4OS(C)(=O)=O)C3)cs2)CC1 (stereo not drawn) [Example I-62]	100%	89%	90%	–	–	–
CCS(=O)(=O)Oc1ccccc1C1CC(c2csc(C3CCN(C(=O)Cn4nc(C(F)F)cc4C(F)F)CC3)n2)=NO1 (stereo not drawn) [Example I-65]	100%	100%	90%	–	–	–
N#CCOc1cccc(F)c1C1CC(c2csc(C3CCN(C(=O)Cn4nc(C(F)F)cc4C(F)F)CC3)n2)=NO1 (stereo not drawn) [Example I-113]	100%	85%	–	–	–	–
Cc1cc(C(F)(F)F)nn1CC(=O)N1CCC(c2nc(C3=NOC(c4cccc(F)c4OS(=O)(=O)C4CC4)C3)cs2)CC1 (stereo not drawn) [Example I-114]	100%	94%	–	–	–	–
O=C(Cn1nc(C(F)F)cc1C(F)F)N1CCC(c2nc(C3=NOC(c4ccccc4OS(=O)(=O)C(F)(F)F)C3)cs2)CC1 (stereo not drawn) [Example I-115]	100%	88%	–	–	–	–
C=CC(=O)Oc1ccccc1C1CC(c2csc(C3CCN(C(=O)Cn4nc(C(F)F)cc4C(F)F)CC3)n2)=NO1 (stereo not drawn) [Example I-116]	100%	98%	–	–	–	–
C#CCN(C=O)c1ccccc1C1CC(c2csc(C3CCN(C(=O)Cn4nc(C(F)F)cc4C(F)F)CC3)n2)=NO1 (stereo not drawn) [Example I-117]	96%	79%	–	–	–	–
CON=Cc1cccc(F)c1C1CC(c2csc(C3CCN(C(=O)Cn4nc(C(F)(F)F)cc4C)CC3)n2)=NO1 (stereo not drawn) [Example I-118]	100%	95%	–	–	–	–

Structure (SMILES)	Eff. % (Plasmopara viticola)	Eff. % (Phytophthora infestans)	Eff. % (Peronospora brassicae)	logp [b] [1]	chromatographic logP (physchem; pH 2.7)	chromatographic logP (physchem; pH 7.8)
CCS(=O)(=O)Oc1ccccc1C1CC(c2csc(C3CCN(C(=O)Cn4nc(C(F)(F)F)cc4C)CC3)n2)=NO1 (stereo not drawn) [Example I-119]	100%	89%	–	–	–	–
CSCOc1ccccc1C1CC(c2csc(C3CCN(C(=O)Cn4nc(C(F)(F)F)cc4C)CC3)n2)=NO1 (stereo not drawn) [Example I-120]	95%	89%	–	–	–	–
N#CCN(C=O)c1ccccc1C1CC(c2csc(C3CCN(C(=O)Cn4nc(C(F)F)cc4C(F)F)CC3)n2)=NO1 (stereo not drawn) [Example I-121]	98%	100%	–	–	–	–
O=CNc1ccccc1C1CC(c2csc(C3CCN(C(=O)Nc4cc(C(F)F)ccc4C(F)F)CC3)n2)=NO1 (stereo not drawn) [Example I-122]	89%	97%	–	–	–	–
O=CNc1ccccc1C1CC(c2csc(C3CCN(C(=O)Cc4cc(C(F)F)ccc4C(F)F)CC3)n2)=NO1 (stereo not drawn) [Example I-123]	73%	100%	–	–	–	–
CS(=O)(=O)Oc1ccccc1C1CC(c2csc(C3CCN(C(=O)Cn4nc(C(F)F)cc4C(F)F)CC3)n2)=NO1 (stereo not drawn) [Example I-124]	100%	100%	100%	–	–	–
Cc1cc(C(F)(F)F)nn1CC(=O)N1CCC(c2nc(C3=NOC(c4ccccc4OS(=O)(=O)C(F)(F)F)C3)cs2)CC1 (stereo not drawn) [Example I-125]	100%	89%	–	–	–	–
CN(C)C(=S)c1ccccc1C1CC(c2csc(C3CCN(C(=O)Cn4nc(C(F)F)cc4C(F)F)CC3)n2)=NO1 (stereo not drawn) [Example I-127]	96%	97%	–	–	–	–
COC(=O)COc1ccc(C2CC(c3csc(C4CCN(C(=O)Cn5nc(C(F)F)cc5C(F)F)CC4)n3)=NO2)cc1 (stereo not drawn) [Example I-128]	93%	90%	–	–	–	–
O=C(Oc1ccccc1C1CC(c2csc(C3CCN(C(=O)Cn4nc(C(F)F)cc4C(F)F)CC3)n2)=NO1)c1cccc(F)c1 (stereo not drawn) [Example I-129]	98%	98%	–	–	–	–
O=C(Oc1ccccc1C1CC(c2csc(C3CCN(C(=O)Cn4nc(C(F)F)cc4C(F)F)CC3)n2)=NO1)c1ccccc1F (stereo not drawn) [Example I-130]	100%	100%	–	–	–	–
O=C(Oc1ccccc1C1CC(c2csc(C3CCN(C(=O)Cn4nc(C(F)F)cc4C(F)F)CC3)n2)=NO1)c1ccccc1 (stereo not drawn) [Example I-131]	94%	100%	–	–	–	–
O=C(Oc1ccccc1C1CC(c2csc(C3CCN(C(=O)Cn4nc(C(F)F)cc4C(F)F)CC3)n2)=NO1)c1ccc(F)cc1 (stereo not drawn) [Example I-132]	96%	100%	–	–	–	–
C[Si](C)(C)C#Cc1ccccc1C1CC(c2csc(C3CCN(C(=O)Cn4nc(C(F)F)cc4C(F)F)CC3)n2)=NO1 (stereo not drawn) [Example I-133]	85%	100%	–	–	–	–
C#CCOCc1ccccc1C1CC(c2csc(C3CCN(C(=O)Cn4nc(C(F)F)cc4C(F)F)CC3)n2)=NO1 (stereo not drawn) [Example I-138]	98%	93%	–	–	–	–
Cc1cc(C(F)(F)F)nn1CC(=O)N1CCC(c2nc(C3=NOC(c4ccccc4OCC#N)C3)cs2)CC1 (stereo not drawn) [Example I-140]	100%	84%	–	–	–	–
